Columns and labels:
Z-138 cells = assay: Z-138 Proliferation Assay (Cell Titer Glo, 5 days); format: cell-based; conditions: Homo sapiens, Table D-2
Summary of the method: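 Exponentially growing Z-138 cells (10,000 cells/ml) in RPMI 1640 with 10% FBS are exposed to nine-point 3-fold dilutions (final top concentration 20 μM, 0.2% DMSO) for 5 days at 37° C. Viability is measured as ATP by CellTiter-Glo luminescence. The 50% inhibitory concentration comes from a 4-parameter fit.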

PRMT5/MEP50 = molecular target: T1, PRMT5/MEP50 (Homo sapiens, UniProt O14744); assay: PRMT5 Biochemical Assay (PRMT5/MEP50 enzyme assay on peptide substrate, 3H-SAM Flashplate); conditions: Table D-2; read-out: Biochemical IC50
T1 construct: Expressed full-length human Flag-PRMT5/6His-MeP50 protein complex was purified; made in house; host or cells: Spodoptera frugiperda (SF9) insect cells, baculovirus (pDEST8)
T1 sequence (O14744 with tags, fused parts or gaps): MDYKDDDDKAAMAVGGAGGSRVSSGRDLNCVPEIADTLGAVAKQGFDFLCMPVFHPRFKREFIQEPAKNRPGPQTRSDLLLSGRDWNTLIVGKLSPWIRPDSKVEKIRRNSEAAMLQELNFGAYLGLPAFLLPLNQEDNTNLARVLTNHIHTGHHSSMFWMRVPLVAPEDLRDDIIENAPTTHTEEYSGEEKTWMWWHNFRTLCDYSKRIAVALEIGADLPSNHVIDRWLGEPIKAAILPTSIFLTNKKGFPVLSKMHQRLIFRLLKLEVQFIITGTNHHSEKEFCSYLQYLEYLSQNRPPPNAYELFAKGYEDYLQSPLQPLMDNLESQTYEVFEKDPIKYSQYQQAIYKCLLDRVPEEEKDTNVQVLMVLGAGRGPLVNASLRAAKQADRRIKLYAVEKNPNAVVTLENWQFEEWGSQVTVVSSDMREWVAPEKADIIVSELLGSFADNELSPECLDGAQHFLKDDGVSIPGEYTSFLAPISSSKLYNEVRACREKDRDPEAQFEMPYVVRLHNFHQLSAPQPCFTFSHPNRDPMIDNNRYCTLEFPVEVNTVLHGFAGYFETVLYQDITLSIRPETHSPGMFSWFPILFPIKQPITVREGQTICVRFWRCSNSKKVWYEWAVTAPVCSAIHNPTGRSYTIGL
T1 sequence (Q9BQA1 with tags, fused parts or gaps partner limits assumed): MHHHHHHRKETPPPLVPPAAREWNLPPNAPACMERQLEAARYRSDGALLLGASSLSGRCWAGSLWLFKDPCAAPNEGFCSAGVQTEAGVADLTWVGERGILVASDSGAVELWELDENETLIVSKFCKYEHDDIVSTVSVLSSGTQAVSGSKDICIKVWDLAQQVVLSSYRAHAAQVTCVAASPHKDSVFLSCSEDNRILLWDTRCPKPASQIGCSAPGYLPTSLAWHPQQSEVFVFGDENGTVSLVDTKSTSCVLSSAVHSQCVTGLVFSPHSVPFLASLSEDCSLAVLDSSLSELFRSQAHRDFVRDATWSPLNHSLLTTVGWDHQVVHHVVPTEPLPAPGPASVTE

Row | SMILES | IC50 (PRMT5/MEP50) [µM] | EC50 (Z-138 cells) [µM]
1 | OC(CNc1cc(-c2ncc3ccn(C4CCNCC4)c3n2)ccn1)CN1CCc2ccccc2C1 (stereo not drawn) [Compound D255] | < 0.1 | 0.101 to 1
2 | CC(=O)N1CCC(n2ccc3cnc(-c4ccnc(NCC(O)CN5CCc6ccccc6C5)c4)nc32)CC1 (stereo not drawn) [Compound D256] | < 0.1 | 0.101 to 1
3 | O[C@@H](COc1cccc(-c2cccc3cccnc23)c1)CN1CCc2ccccc2C1 [Compound D257] | < 0.1 | 1 to 10
4 | Cn1cc2ccc(-c3cccc(NCC(O)CN4CCc5ccccc5C4)c3)nc2n1 (stereo not drawn) [Compound D261] | < 0.1 | 10 to 40
5 | Cc1ncc2ccc(-c3cccc(OCC(O)CN4CCc5ccccc5C4)c3)cn12 (stereo not drawn) [Compound D266] | < 0.1 | 1 to 10
6 | Cn1cnc2cc(-c3cc(NCC(O)CN4CCc5ccccc5C4)n[nH]3)ccc21 (stereo not drawn) [Compound D272] | 0.101 to 1 | 1 to 10

The next lines start with results.

Row | IC50 (PRMT5/MEP50) [µM] | SMILES | EC50 (Z-138 cells) [µM]
7 | 0.101 to 1 | CNC(=O)Cn1cnc2ccc(-c3cccc(OCC(O)CN4CCc5ccccc5C4)c3)cc21 (stereo not drawn) [Compound D262] | 1 to 10
8 | 0.101 to 1 | O=C(Cn1cnc2ccc(-c3cccc(OCC(O)CN4CCc5ccccc5C4)c3)cc21)N1CCCC1 (stereo not drawn) [Compound D263] | 10 to 40
9 | 0.101 to 1 | O=C(Cn1cnc2ccc(-c3cccc(OCC(O)CN4CCc5ccccc5C4)c3)cc21)N1CCOCC1 (stereo not drawn) [Compound D264] | 1 to 10
10 | < 0.1 | OC(CNc1cc(-c2ccc3ncn(C4COC4)c3c2)ccn1)CN1CCc2ccccc2C1 (stereo not drawn) [Compound D265] | 1 to 10
11 | < 0.1 | OC(COc1cccc(-c2ccc3ncn(C4COC4)c3c2)c1)CN1CCc2ccccc2C1 (stereo not drawn) [Compound D269] | 10 to 40
12 | 0.101 to 1 | CN1CCN(C(=O)Cn2cnc3ccc(-c4cccc(OCC(O)CN5CCc6ccccc6C5)c4)cc32)CC1 (stereo not drawn) [Compound D270] | 10 to 40
13 | 0.101 to 1 | Cn1cnc2ccc(-c3cc(NCC(O)CN4CCc5ccccc5C4)n[nH]3)cc21 (stereo not drawn) [Compound D271] | > 20
14 | < 0.1 | CC(=O)N(CC(O)CN1CCc2ccccc2C1)c1cccc(-c2ccc3ncn(C)c3c2)c1 (stereo not drawn) [Compound D273] | 10 to 40
15 | < 0.1 | Cn1cnc2ccc(-c3ccnc(NC[C@H](O)CN4CCc5ccccc5C4)c3)cc21 [Compound D275] | 1 to 10
